Reference: patent US20060178374A1, “Aminoheteroaryl compounds as protein kinase inhibitors” (AGOURON PHARMACEUTICALS, INC., priority 2004, published 2006)
pKi: −log10 of the molar value.

Biological target: HGFR (c-Met) (Homo sapiens, UniProt P08581)
Assay: HGFR Continuous-Coupled Spectrophotometric Assay
Type: biochemical
Details: HGFR enzyme 50 nM, Met-2 peptide substrate, 37° C.
Method in brief: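 Human HGFR (50 nM final) phosphorylates the Met-2 activation-loop peptide, with ADP formation coupled through PK/LDH to NADH consumption, read as the A340 decrease over 10 min at 37 °C. Buffer was HEPES pH 7.5 with MgCl2, DTT, PEP and ATP.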

Chain of HGFR (c-Met) (P08581 974-1390): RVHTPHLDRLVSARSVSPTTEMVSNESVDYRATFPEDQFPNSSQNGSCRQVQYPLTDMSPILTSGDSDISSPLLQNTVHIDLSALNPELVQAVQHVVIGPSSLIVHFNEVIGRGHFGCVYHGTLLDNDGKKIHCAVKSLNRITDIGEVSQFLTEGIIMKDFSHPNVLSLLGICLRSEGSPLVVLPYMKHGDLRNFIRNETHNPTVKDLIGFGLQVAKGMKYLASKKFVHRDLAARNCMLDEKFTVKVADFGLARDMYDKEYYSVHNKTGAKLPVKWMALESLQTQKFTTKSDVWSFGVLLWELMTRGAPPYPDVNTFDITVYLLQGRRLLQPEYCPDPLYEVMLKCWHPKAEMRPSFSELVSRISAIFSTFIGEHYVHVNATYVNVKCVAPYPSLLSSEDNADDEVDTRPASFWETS

pKi | SMILES
7.15 | CC(Oc1cc(-c2ccc(C(=O)N3CCNCC3)cc2)cnc1N)c1c(Cl)ccc(O)c1Cl (centres unmarked) [Example 79, (4-{6-Amino-5-[1-(2,6-dichloro-3-hydroxy-phenyl)-ethoxy]-pyridin-3-yl}-phenyl)-piperazin-1-yl-methanone]
8.22 | COc1ccc(Cl)c(C(C)Oc2cc(-c3ccc(C(=O)N4CCNCC4)cc3)cnc2N)c1Cl (centres unmarked) [Example 80, (4-{6-Amino-5-[1-(2,6-dichloro-3-methoxy-phenyl)-ethoxy]-pyridin-3-yl}-phenyl)-piperazin-1-yl-methanone]
6.00 | CC(Oc1cc(C(N)=O)cnc1N)c1c(Cl)ccc(F)c1Cl (centres unmarked) [Example 81, 6-Amino-5-[1-(2,6-dichloro-3-fluoro-phenyl)-ethoxy]-nicotinamide]
6.39 | Cc1ccc(Cl)c(C(C)Oc2cc(-c3ccc(C(=O)N4CCC(N5CCCC5)CC4)cc3)cnc2N)c1F (centres unmarked) [Example 82, (4-{6-Amino-5-[1-(6-chloro-2-fluoro-3-methyl-phenyl)-ethoxy]-pyridin-3-yl}-phenyl)-(4-pyrrolidin-1-yl-piperidin-1-yl)-methanone]
5.26 | CC(Oc1cc(-c2ccc(C(=O)N3CCC(N4CCCC4)CC3)cc2)cnc1N)c1cccc(C(=O)O)c1 (centres unmarked) [Example 84, 3-(1-{2-Amino-5-[4-(4-pyrrolidin-1-yl-piperidine-1-carbonyl)-phenyl]-pyridin-3-yloxy}-ethyl)-benzoic acid]
6.11 | Cc1cn(-c2cnc(N)c(OC(C)c3c(Cl)ccc(F)c3Cl)c2)cn1 (centres unmarked) [Example 85, 3-[1-(2,6-Dichloro-3-fluoro-phenyl)-ethoxy]-5-(4-methyl-imidazol-1-yl)-pyridin-2-ylamine]
5.74 | COC(=O)c1cn(-c2cnc(N)c(OC(C)c3c(Cl)ccc(F)c3Cl)c2)cn1 (centres unmarked) [Example 86, 1-{6-Amino-5-[1-(2,6-dichloro-3-fluoro-phenyl)-ethoxy]-pyridin-3-yl}-imidazole-4-carboxylic acid methyl ester]
6.04 | CC(Oc1cc(N2CCCC2=O)cnc1N)c1c(Cl)ccc(F)c1Cl (centres unmarked) [Example 90, N-{6-Amino-5-[1-(2,6-dichloro-3-fluoro-phenyl)-ethoxy]-pyridin-3-yl}-pyrrolidin-2-one]
5.88 | COc1ccc(C(=O)Nc2cnc(N)c(OC(C)c3c(Cl)ccc(F)c3Cl)c2)cc1 (centres unmarked) [Example 91, N-{6-Amino-5-[1-(2,6-dichloro-3-fluoro-phenyl)-ethoxy]-pyridin-3-yl}4-methoxy-benzamide]
5.77 | COc1cc(C(=O)Nc2cnc(N)c(OC(C)c3c(Cl)ccc(F)c3Cl)c2)ccn1 (centres unmarked) [Example 92, N-{6-Amino-5-[1-(2,6-dichloro-3-fluoro-phenyl)-ethoxy]-pyridin-3-yl}-2-methoxy-isonicotinamide]
5.83 | CC(Oc1cc(NC(=O)c2cnccn2)cnc1N)c1c(Cl)ccc(F)c1Cl (centres unmarked) [Example 93, Pyrazine-2-carboxylic acid {6-amino-5-[1-(2,6-dichloro-3-fluoro-phenyl)-ethoxy]-pyridin-3-yl}-amide]
5.42 | CC(Oc1nc(-c2ccccc2NS(C)(=O)=O)cnc1N)c1c(Cl)ccc(F)c1Cl (centres unmarked) [Example 94, N-(2-{5-Amino-6-[1-(2,6-dichloro-3-fluoro-phenyl)-ethoxy]-pyrazin-2-yl}-phenyl)-methanesulfonamide]
5.38 | Cc1cc2cccc(-c3cnc(N)c(OC(C)c4c(Cl)ccc(F)c4Cl)n3)c2[nH]1 (centres unmarked) [Example 95, 3-[1-(2,6-Dichloro-3-fluoro-phenyl)-ethoxy]-5-(2-methyl-1H-indol-7-yl)-pyrazin-2-ylamine]
6.66 | CC(Oc1cc(-c2ccc(C(=O)N3CCC(N4CCCC4)CC3)cc2)cnc1N)c1c(Cl)ccc(Cl)c1F (centres unmarked) [Example 96, (4-{6-Amino-5-[1-(3,6-dichloro-2-fluoro-phenyl)-ethoxy]-pyridin-3-yl}-phenyl)-(4-pyrrolidin-1-yl-piperidin-1-yl)-methanone]
6.49 | CC(Oc1cc(-c2ccc(C(=O)N3C[C@@H](C)N[C@@H](C)C3)cc2)cnc1N)c1c(Cl)ccc(Cl)c1F (some centres unmarked) [Example 97, (4-{6-Amino-5-[1-(3,6-dichloro-2-fluoro-phenyl)-ethoxy]-pyridin-3-yl}-phenyl)-(3,5-dimethyl-piperazin-1-yl)-methanone]
7.40 | CC(Oc1cc(-c2ccc(CC(=O)N3CCC(N)C3)cc2)cnc1N)c1c(Cl)ccc(F)c1Cl (centres unmarked) [Example 99, 2-(4-{6-Amino-5-[1-(2,6-dichloro-3-fluoro-phenyl)-ethoxy]-pyridin-3-yl}-phenyl)-1-(3-amino-pyrrolidin-1-yl)-ethanone]

pKi | SMILES
7.43 | CC(Oc1cc(-c2ccc(CC(=O)N3CCNCC3)cc2)cnc1N)c1c(Cl)ccc(F)c1Cl (centres unmarked) [Example 100, 2-(4-{6-Amino-5-[1-(2,6-dichloro-3-fluoro-phenyl)-ethoxy]-pyridin-3-yl}-phenyl)-1-piperazin-1-yl-ethanone]
7.41 | CC(Oc1cc(-c2ccc(CC(=O)N3CC4C(N)C4C3)cc2)cnc1N)c1c(Cl)ccc(F)c1Cl (centres unmarked) [Example 101, 1-(6-Amino-3-aza-bicyclo[3.1.0]hex-3-yl)-2-(4-{6-amino-5-[1-(2,6-dichloro-3-fluoro-phenyl)-ethoxy]-pyridin-3-yl}-phenyl)-ethanone]
6.79 | CC(Oc1cc(-c2ccc(NC(=O)C3CCNCC3)nc2)cnc1N)c1c(Cl)ccc(F)c1Cl (centres unmarked) [Example 102, Piperidine-4-carboxylic acid {6′-amino-5′-[1-(2,6-dichloro-3-fluoro-phenyl)-ethoxy]-[3,3′]bipyridinyl-6-yl}-amide]
6.47 | CC(Oc1cc(-c2ccc(F)c(C#N)c2)cnc1N)c1c(Cl)ccc(F)c1Cl (centres unmarked) [Example 103, 5-{6-amino-5-[1-(2,6-dichloro-3-fluorophenyl)ethoxy]pyridin-3-yl}-2-fluorobenzonitrile]
8.00 | C[C@@H](Oc1cc(-c2ccc(C(=O)N3CCNCC3)cc2)cnc1N)c1c(Cl)ccc(F)c1Cl [Example 104, 3-[(1R)-1-(2,6-dichloro-3-fluorophenyl)ethoxy]-5-[4-(piperazin-1-ylcarbonyl)phenyl] pyridin-2-amine]
7.36 | CC(Oc1cc(-c2ccc(OCCN3CCCC3)cc2)cnc1N)c1c(Cl)ccc(F)c1Cl (centres unmarked) [Example 105, 3-[1-(2,6-dichloro-3-fluorophenyl)ethoxy]-5-[4-(2-pyrrolidin-1-ylethoxy)phenyl] pyridin-2-amine]
7.36 | COC(=O)c1n[nH]c2cc(-c3cnc(N)c(OC(C)c4c(Cl)ccc(F)c4Cl)c3)ccc12 (centres unmarked) [Example 106, methyl 6-{6-amino-5-[1-(2,6-dichloro-3-fluorophenyl)ethoxy]pyridin-3-yl}-1H-indazole-3-carboxylate]
7.57 | CC(Oc1cc(-c2cnc3[nH]c(=O)oc3c2)cnc1N)c1c(Cl)ccc(F)c1Cl (centres unmarked) [Example 107, 6-{6-amino-5-[1-(2,6-dichloro-3-fluorophenyl)ethoxy]pyridin-3-yl}(1,3]oxazolo[4,5-b]pyridin-2 (3H)-one]
7.66 | COc1cc(-c2cnc(N)c(OC(C)c3c(Cl)ccc(F)c3Cl)c2)ccc1OCCO (centres unmarked) [Example 108, 2-(4-{6-amino-5-[1-(2,6-dichloro-3-fluorophenyl)ethoxy]pyridin-3-yl}-2-methoxyphenoxy)ethanol]
6.07 | Cc1noc(C)c1-c1cnc(N)c(OC(C)c2c(Cl)ccc(F)c2Cl)c1 (centres unmarked) [Example 109, 3-[1-(2,6-dichloro-3-fluoropheny)ethoxy]-5-(3,5-dimethylisoxazol-4-yl)pyridin-2-amine]
6.60 | CC(Oc1cc(C2=CCCC2)cnc1N)c1c(Cl)ccc(F)c1Cl (centres unmarked) [Example 110, 5-cyclopent-1-en-1-yl-3-[1-(2,6-dichloro-3-fluorophenyl)ethoxy]pyridin-2-amine]
7.55 | COc1cc(-c2cnc(N)c(OC(C)c3c(Cl)ccc(F)c3Cl)c2)ccc1OCCN1CCCC1 (centres unmarked) [Example 111, 3-[1-(2,6-dichloro-3-fluorophenyl)ethoxy]-5-[3-methoxy-4-(2-pyrrolidin-1-ylethoxy)phenyl]pyridin-2-amine]
7.74 | CC(Oc1cc(-c2ccc(C(=O)N3CC(N)C3)cc2)cnc1N)c1c(Cl)ccc(F)c1Cl (centres unmarked) [Example 112, 5-{4-[(3-aminoazetidin-1-yl)carbonyl]phenyl}-3-[1-(2,6-dichloro-3-fluorophenyl)ethoxy]pyridin-2-amine]
6.44 | CC(Oc1cc(-c2cncnc2)cnc1N)c1c(Cl)ccc(F)c1Cl (centres unmarked) [Example 113, 3-[1-(2,6-dichloro-3-fluorophenyl)ethoxy]-5-pyrimidin-5-ylpyridin-2-amine]
6.32 | CC(Oc1cc(-c2cnc(OC3CCN(C(=O)OC(C)(C)C)CC3)nc2)cnc1N)c1c(Cl)ccc(F)c1Cl (centres unmarked) [Example 114, tert-butyl 4-[(5-{6-amino-5-[1-(2,6-dichloro-3-fluorophenyl)ethoxy]pyridin-3-yl}pyrimidin-2-yl)oxy]piperidine-1-carboxylate]
5.82 | CC(Oc1cc(-c2cnc(Cl)nc2)cnc1N)c1c(Cl)ccc(F)c1Cl (centres unmarked) [Example 115, 5-(2-chloropyrimidin-5-yl)-3-[1-(2,6-dichloro-3-fluorophenyl)ethoxy]pyridin-2-amine]

SMILES | pKi
CC(Oc1cc(-c2ccc(CC(=O)N3CCN(C)CC3)cc2)cnc1N)c1c(Cl)ccc(F)c1Cl (centres unmarked) [Example 98, 2-(4-{6-Amino-5-[1-(2,6-dichloro-3-fluoro-phenyl)-ethoxy]-pyridin-3-yl}-phenyl)-1-(4-methyl-piperazin-1-yl)-ethanone] | 7.17

Same assay, conditions: compound at 1 μM

inhibition at 1 µM [%] | SMILES
11 | CCC(Oc1cc(-c2ccc(C(=O)N3CCC(N4CCCC4)CC3)cc2)cnc1N)c1cc(F)c(F)cc1F (centres unmarked) [Example 83, (4-{6-Amino-5-[1-(2,4,5-trifluoro-phenyl)-propoxy]-pyridin-3-yl}-phenyl)-(4-pyrrolidin-1-yl-piperidin-1-yl)-methanone]
20 | CC(Oc1cc(-c2ccc(C(=O)N3CCC(N4CCCC4)CC3)cc2)cnc1N)c1cccc(C(=O)NCCc2cccc(O)c2)c1 (centres unmarked) [Example 87, 3-(1-{2-Amino-5-[4-(4-pyrrolidin-1-yl-piperidine-1-carbonyl)-phenyl]-pyridin-3-yloxy}-ethyl)-N-[2-(3-hydroxy-phenyl)-ethyl]-benzamide]
